The source of these data is PubChem BioAssay AID2060345 (Molecular Pharmacology Branch, DTP, NCI, 2025).

This assay deals with MALME-3M multicell spheroids, viability. As to the kind of experiment: Anticancer human tumor MALME-3M cell line growth inhibition [TAK].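 As to all read-outs here: spheroids exposed to drugs for seven days before readout.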 Conditions: for viability, T/C: stronger effect = lower value. From the text:
Combinatorial screen of targeted agents with TAK-243 and ipatasertib in multi-cell type tumor spheroids
A high-throughput screen of multi-cell type tumor spheroids was designed to identify active combinations of targeted small molecules and TAK-243 or ipatasertib. Complex spheroids include a stromal component modeled by human endothelial cells (HUVEC) and fibroblasts modeled by human mesenchymal stem cells (MSCs). The concentration ranges selected for each drug and investigational agent were based upon clinically achievable concentrations if the clinical Cmax of the agent was known.
Compounds. The drugs and investigational agents: TAK-243 (785004), ipatasertib (767898), everolimus (733504), selumetinib (741078), bortezomib (756655), trametinib (758246), ixazomib (758254), vemurafenib (761431), dabrafenib (764134), sapanisertib (764658), alpelisib (765974), and copanlisib (816437), were obtained from the National Cancer Institute (NCI) Developmental Therapeutics Program Chemical Repository. The FDA-approved anticancer drug set is available from the NCI Developmental Therapeutics Program. […] The stock solutions were prepared in dimethyl sulfoxide (DMSO, Sigma-Aldrich, St. Louis, MO, cat. D2650) at 800-fold the tested concentration and stored at -70 degrees C prior to their use. All drugs and investigational agents were tested over a range starting from a high concentration at or near the clinical Cmax and decreasing in half-log increments. If the clinical Cmax for an agent had not been determined, the highest concentration tested was 10 microM.
NCI60 Cell Culture. NCI60 cell lines were obtained from the NCI Developmental Therapeutics Program Tumor Repository. For each lot of cells, the Repository performed Applied Biosystems AmpFLSTR Identifiler testing with PCR amplification to confirm consistency with the published Identifier STR profile for each cell line. Cells were kept in continuous culture for no more than 20 passages. The optimal seeding densities for each of the cell lines at each time point assessed were determined prior to performing the concentration response studies. Briefly, the NCI60 human tumor lines were grown as monolayers in RPMI 1640 medium supplemented with 10% FBS and 2 mmol/L L-glutamine.
An additional 2 lines were from the NCI60 cell line panel including melanomas, MALME-3M and SK-MEL-2. Pooled donor human umbilical vein endothelial cells (HUVEC, Lonza, cat. CC-2519) and human mesenchymal stem cells (hMSC, Lonza, cat. PT-2501) were purchased from Lonza (Walkersville, MD).
PDMR cell lines were grown in complete medium (DC medium): Dulbecco's modified Eagle's medium (DMEM)/F12 supplemented with 5% fetal bovine serum (FBS), 2 mM L-glutamine, 100 U/mL penicillin and 100 µg/ml streptomycin, 0.4 µg/ml hydrocortisone, 10 ng/ml epidermal growth factor (EGF) recombinant human protein, 24 µg/mL adenine, and 0.1 mg/mL primocin. During culture from frozen stock vials, PDMR cells were cultured in the same medium containing 10 µM Y-27632 (see Table 3). The PDCs were cultured in complete DMEM/F12 media without 10 microM Y-27632 dihydrochloride for at least two passages prior to the screen. The pooled donor HUVEC and hMSC were cultured in endothelial cell growth medium 2 (PromoCell, Heidelberg, Germany, cat. C-22011) and mesenchymal stem cell growth medium 2 (PromoCell, cat. C-28009), respectively. For all experiments, HUVEC and hMSC were used at passages </=5.
For the pre-screen, cell seeding densities were determined from a titration spanning the range from 5,000 to 313 cells per well. The mct-spheroids including 60% malignant cells, 25% HUVEC and 15% MSC dispensed as a mixture into U-bottom Ultra-Low Attachment 384-well plates (Corning, NY)
High-throughput Drug Combination Screening.
Prior to their inoculation into 384-well plates, malignant cells, HUVEC, and hMSC were removed from T flasks using TrypLE express (Thermo Fisher Scientific, cat. 12605036) and harvested by centrifugation for 5 min at 233 x g. […]

Where [1] appears, read: curve of first compound, second compound 0.3 µM.
[2] abbreviates: curve of first compound, second compound 0.949 µM.
The mark [3] stands for this setting: curve of first compound, second compound 3 µM.
Setting [4] is: curve of first compound, second compound 9.49 µM.
The mark [5] stands for this setting: curve of first compound, second compound 30 µM.

Structures are written as SMILES. Where “and” joins values, the source holds several entries; their conditions need not be identical. Identical values can stand only once. Some results are limits rather than exact numbers.

One may read the IC50 as the concentration at which inhibition is half-maximal. By viability, T/C is commonly meant the ratio of treated to control. In the case of `CC(C)CC(NC(=O)CNC(=O)c1cc(Cl)ccc1Cl)B1OC(=O)CC(CC(=O)O)(C(=O)O)O1` (stereo unspecified) + CC(C)NCC(C(=O)N1CCN(c2ncnc3c2C(C)CC3O)CC1)c1ccc(Cl)cc1, the IC50 is, setting by setting: under setting [1], 16.8 nM; under setting [2], 17.5 nM; under setting [3], 9.34 nM; under setting [4], 11.8 nM; under setting [5], under 0.316 nM. In addition, the viability, T/C (second compound 0.3 µM, first compound 0.000316 µM) was 109%; the viability, T/C (second compound 0.3 µM, first compound 0.001 µM) was 97.2%; the viability, T/C (second compound 0.3 µM, first compound 0.00316 µM) is 90.6%; the viability, T/C (second compound 0.3 µM, first compound 0.01 µM) was 82.6%; the viability, T/C (second compound 0.3 µM, first compound 0.0316 µM) is 10.4%; the viability, T/C (second compound 0.3 µM, first compound 0.1 µM) was 0.25%. In addition, the viability, T/C runs as follows: (second compound 0.949 µM, first compound 0.000316 µM) 92.4%; (second compound 0.949 µM, first compound 0.001 µM) 89%; (second compound 0.949 µM, first compound 0.00316 µM) 95.4%; (second compound 0.949 µM, first compound 0.01 µM) 87.2%; (second compound 0.949 µM, first compound 0.0316 µM) 10.7%; (second compound 0.949 µM, first compound 0.1 µM) 0.17%. In addition, the viability, T/C is, setting by setting: (second compound 3 µM, first compound 0.000316 µM) 90.5%; (second compound 3 µM, first compound 0.001 µM) 77%; (second compound 3 µM, first compound 0.00316 µM) 77.5%; (second compound 3 µM, first compound 0.01 µM) 49.1%; (second compound 3 µM, first compound 0.0316 µM) 6.98%; (second compound 3 µM, first compound 0.1 µM) 0.17%. In addition, the viability, T/C (second compound 9.49 µM, first compound 0.000316 µM) is 70.9%; the viability, T/C (second compound 9.49 µM, first compound 0.001 µM) was 68%; the viability, T/C (second compound 9.49 µM, first compound 0.00316 µM) is 64.8%; the viability, T/C (second compound 9.49 µM, first compound 0.01 µM) is 57.6%; the viability, T/C (second compound 9.49 µM, first compound 0.0316 µM) was 5.18%; the viability, T/C (second compound 9.49 µM, first compound 0.1 µM) was 0.17%. Besides, the viability, T/C was 48.2% (second compound 30 µM, first compound 0.000316 µM); 49.8% (second compound 30 µM, first compound 0.001 µM); 45.2% (second compound 30 µM, first compound 0.00316 µM); 30.9% (second compound 30 µM, first compound 0.01 µM); 4.73% (second compound 30 µM, first compound 0.0316 µM); 0.24% (second compound 30 µM, first compound 0.1 µM).

`Cc1nc(NC(=O)N2CCCC2C(N)=O)sc1-c1ccnc(C(C)(C)C(F)(F)F)c1` (stereo unspecified): the viability, T/C was 100% and 86.7% (compound 0.0316 µM); 98.8% and 96.3% (compound 0.1 µM); 83.6% and 72.6% (compound 0.316 µM); 70.6% and 81.7% (compound 1 µM); 61.6% and 68.2% (compound 3.16 µM); 50% and 41.9% (compound 10 µM). Besides, the IC50 (curve of compound) is > 10000 nM and 7080 nM.

Consider `CCCS(=O)(=O)Nc1ccc(F)c(C(=O)c2c[nH]c3ncc(-c4ccc(Cl)cc4)cc23)c1F`, for which the viability, T/C (compound 0.316 µM) is 26.3% and 29.5%; the viability, T/C (compound 1 µM) is 22.6% and 22.5%; the viability, T/C (compound 3.16 µM) was 19.4% and 20.7%; the viability, T/C (compound 10 µM) was 15.4% and 17%; the viability, T/C (compound 31.6 µM) was 19.3% and 3.37%; the viability, T/C (compound 100 µM) is 15.6% and 16.2%. For the same molecule, the IC50 (curve of compound) is under 316 nM.

Regarding `CC(C)CC(NC(=O)CNC(=O)c1cc(Cl)ccc1Cl)B1OC(=O)CC(CC(=O)O)(C(=O)O)O1` (stereo unspecified), the viability, T/C is, setting by setting: (compound 0.000316 µM) 89.2% and 116%; (compound 0.001 µM) 86.8% and 91.6%; (compound 0.00316 µM) 88.2% and 98.5%; (compound 0.01 µM) 88.2% and 96%; (compound 0.0316 µM) 7.17% and 7.01%; (compound 0.1 µM) 0.41% and 1.22%. Also, the IC50 (curve of compound) was 17.2 nM and 18.1 nM.

As for `Cn1cnc2c(F)c(Nc3ccc(Br)cc3Cl)c(C(=O)NOCCO)cc21` + CC(C)NCC(C(=O)N1CCN(c2ncnc3c2C(C)CC3O)CC1)c1ccc(Cl)cc1, the IC50 is 41.1 nM under setting [1]; 36 nM under setting [2]; 36.5 nM under setting [3]; 17.2 nM under setting [4]; under 9.49 nM under setting [5]. The viability, T/C reads like this: (second compound 0.3 µM, first compound 0.00949 µM) 92.5%; (second compound 0.3 µM, first compound 0.03 µM) 60.7%; (second compound 0.3 µM, first compound 0.0949 µM) 21%; (second compound 0.3 µM, first compound 0.3 µM) 19%; (second compound 0.3 µM, first compound 0.949 µM) 13.1%; (second compound 0.3 µM, first compound 3 µM) 5.91%. In addition, the viability, T/C is 86.2% (second compound 0.949 µM, first compound 0.00949 µM); 55.6% (second compound 0.949 µM, first compound 0.03 µM); 23.5% (second compound 0.949 µM, first compound 0.0949 µM); 16.7% (second compound 0.949 µM, first compound 0.3 µM); 12% (second compound 0.949 µM, first compound 0.949 µM); 4.79% (second compound 0.949 µM, first compound 3 µM). Moreover, the viability, T/C was 78.3% (second compound 3 µM, first compound 0.00949 µM); 56.6% (second compound 3 µM, first compound 0.03 µM); 19.6% (second compound 3 µM, first compound 0.0949 µM); 16.3% (second compound 3 µM, first compound 0.3 µM); 9.28% (second compound 3 µM, first compound 0.949 µM); 3.64% (second compound 3 µM, first compound 3 µM). For the same molecule, the viability, T/C is 66.8% (second compound 9.49 µM, first compound 0.00949 µM); 33.1% (second compound 9.49 µM, first compound 0.03 µM); 19.6% (second compound 9.49 µM, first compound 0.0949 µM); 12.1% (second compound 9.49 µM, first compound 0.3 µM); 7.13% (second compound 9.49 µM, first compound 0.949 µM); 2.1% (second compound 9.49 µM, first compound 3 µM). In addition, the viability, T/C (second compound 30 µM, first compound 0.00949 µM) was 47.3%; the viability, T/C (second compound 30 µM, first compound 0.03 µM) is 31.6%; the viability, T/C (second compound 30 µM, first compound 0.0949 µM) is 13.1%; the viability, T/C (second compound 30 µM, first compound 0.3 µM) is 7.49%; the viability, T/C (second compound 30 µM, first compound 0.949 µM) was 3.66%; the viability, T/C (second compound 30 µM, first compound 3 µM) is 0.52%.
